# According to patent US11028136B2, “Tumor antigen peptide” (Sapporo Medical University, priority 2014, dated 2021):
# Columns and labels:
# Assay type in all cases: cell-based
# CaSki = experiment: Sphere formation capability of siRNA-transfected cells; conditions: FIG. 16-1(a)
# Protocol: (§1) Sphere formation has been reported as being one of the indicators of cancer stem cell markers in cervical cancer. Therefore, a spheroid formation assay using a low adherent cell culture plate was carried out. Cervical cancer cell lines (CaSki, TCS, MS751, SKG-IIIb, ME-180, and SiHa) were cultured using a multi well plate having an ultra low adherent surface (Ultra Low Attachment 6-well plate, Corning). Adherent cultured cells were peeled off with a solution containing 0.25% trypsin in 2 mM EDTA, and were plated on each well at 10^3 cells/well. As a medium, one prepared by adding to a serum-free DMEM/F-12 medium 20 ng/mL of h-EGF (acquired from R&D systems), 10 ng/mL of b-FGF (acquired from R&D systems), 1% penicillin/streptomycin (acquired from GIBCO), 4 μg/mL of heparin, and a final concentration of 1% of N2 supplement (acquired from WAKO) was used, culturing was carried out under normal culturing conditions for 7 days or 14 days, and formation of spheroids of 100 μm or greater was confirmed for all of the cell lines (FIG. 1). […]
# (§2) MS751 and CaSki were each transfected with siRNAs for BORIS that had been designed to have the sequences shown in the table below in accordance with the protocol described in the Instructions by the manufacturer for the Lipofectamine RNAiMAX used. Cells were analyzed 48 hours after transfection. […]
# MS751 = experiment: as above; conditions: FIG. 16-1(b)
# Protocol: as §1, §2
# CaSki cell line [1] = experiment: Stemness gene expression of siRNA-transfected cells; conditions: FIG. 15
# Protocol: (§3) MS751 and CaSki were each transfected with siRNAs for BORIS that had been designed to have the sequences shown in the table below in accordance with the protocol described in the Instructions by the manufacturer for the Lipofectamine RNAiMAX used. Cells were analyzed 48 hours after transfection. Trilencer-27 Universal Scrambled Negative Control siRNA (SR30004, Origene) was used as a negative control.
# CaSki cell line [2] = experiment: Cell proliferation of siRNA-transfected cells; conditions: FIG. 14-1(b), 14-2
# Protocol: as §3
substance,measurement,setting,value
rGrGrArArArUrArCrCrArCrGrArUrGrCrArArArUrUrUrCAT [siRNA2],Sphere formation capability,CaSki,markedly suppressed
same,Sphere formation capability,MS751,markedly suppressed
same,Stemness gene suppression,CaSki cell line [1],did not occur at all
same,Cell proliferation,CaSki cell line [2],slightly suppressed
